These results are taken from ChEMBL document CHEMBL3525920, “CYP4F enzymes are responsible for the elimination of fingolimod (FTY720), a novel treatment of relapsing multiple sclerosis” (Drug Metab Dispos, 2011).

As a reminder, the IC50 is the midpoint of a concentration-inhibition curve. In general, Ki refers to the equilibrium dissociation constant of an inhibitor or competing ligand from its target. In general, Km refers to the substrate concentration at which the rate is half of its maximum. In general, Vmax refers to the top rate of the reaction or transport when substrate is in excess.

Series [1] is described as follows: Retention time of the compound by long gradient-based HPLC-RA analysis. The series is classed as physicochemical.
Series [2] is described as follows: Retention time of the compound by C18 advantage armor column based LC-MS analysis. The format is physicochemical.
A short description of series [3]: Retention time of the compound by symmetry C18 column based LC-MS analysis. The series is classed as physicochemical.
Another series has as its target Cytochrome P450 2D6 (Homo sapiens, UniProt P10635). Nature of the series: Activity at human recombinant CYP2D6 expressed in baculovirus-infected BTI-TN-5B1-4 insect cell microsomes assessed as relative abundance of compound formation treated with [14C]fingolimod at 20 uM after 30 mins by HPLC-RA analysis. The note with it: bti-tn-5b1-4, 0.5 h. The series is classed as ADME.

In series [4] the target is T1, Cytochrome P450 4F2 (Homo sapiens, UniProt P78329).
T1 sequence (P78329 whole entry): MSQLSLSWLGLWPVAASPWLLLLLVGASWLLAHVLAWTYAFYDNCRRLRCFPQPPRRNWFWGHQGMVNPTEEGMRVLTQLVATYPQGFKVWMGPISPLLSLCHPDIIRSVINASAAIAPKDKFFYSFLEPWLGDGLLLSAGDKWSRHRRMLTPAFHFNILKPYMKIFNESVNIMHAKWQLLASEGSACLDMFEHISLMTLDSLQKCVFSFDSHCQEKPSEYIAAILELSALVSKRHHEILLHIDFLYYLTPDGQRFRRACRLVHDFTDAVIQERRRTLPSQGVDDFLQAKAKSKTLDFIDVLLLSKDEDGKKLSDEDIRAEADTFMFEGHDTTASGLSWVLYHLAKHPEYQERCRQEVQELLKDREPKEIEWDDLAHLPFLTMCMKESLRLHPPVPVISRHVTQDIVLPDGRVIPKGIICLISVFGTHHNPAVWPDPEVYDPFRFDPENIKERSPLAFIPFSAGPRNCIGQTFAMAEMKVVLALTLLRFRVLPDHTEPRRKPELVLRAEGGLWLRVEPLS
In words: Activity at human recombinant CYP4F2 expressed in baculovirus-infected BTI-TN-5B1-4 insect cell microsomes assessed as relative abundance of compound formation treated with [14C]fingolimod at 100 uM after 30 mins by HPLC-RA analysis. The format is ADME. The note with it: bti-tn-5b1-4, 0.5 h.

A further series addresses Cytochrome P450 4F3 (Homo sapiens, UniProt Q08477). Nature of the series: Activity at human recombinant CYP4F3B expressed in baculovirus-infected BTI-TN-5B1-4 insect cell microsomes assessed as relative abundance of compound formation treated with [14C]fingolimod at 100 uM after 30 mins by HPLC-RA analysis. The series is classed as ADME. The settings on record: bti-tn-5b1-4, 0.5 h.

Series [5] is described as follows: Terminal half life in human. The format is ADME, organism-based. Also noted: dosed compound name Fingolimod. The note with it: in vivo, read-out: beta t1/2 (converted).
The target in series [6] is T1, Cytochrome P450 4F2. In words: Inhibition of human recombinant CYP4F2 assessed as fingolimod metabolism. The format is ADME.
In series [7] the target is T1, Cytochrome P450 4F2. In words: Inhibition of human CYP4F2 in human liver microsomes assessed as fingolimod metabolism. The format is ADME.
Substrate in series [8]: CCCCCCCCc1ccc(CCC(N)(CO)CO)cc1
In words: Activity at human recombinant CYP4F2 expressed in baculovirus-infected BTI-TN-5B1-4 insect cell microsomes assessed as metabolite formation after 15 mins by Eadie-Hofstee plot analysis. The series is classed as ADME.

Sequence of Cytochrome P450 2D6 (P10635 whole entry): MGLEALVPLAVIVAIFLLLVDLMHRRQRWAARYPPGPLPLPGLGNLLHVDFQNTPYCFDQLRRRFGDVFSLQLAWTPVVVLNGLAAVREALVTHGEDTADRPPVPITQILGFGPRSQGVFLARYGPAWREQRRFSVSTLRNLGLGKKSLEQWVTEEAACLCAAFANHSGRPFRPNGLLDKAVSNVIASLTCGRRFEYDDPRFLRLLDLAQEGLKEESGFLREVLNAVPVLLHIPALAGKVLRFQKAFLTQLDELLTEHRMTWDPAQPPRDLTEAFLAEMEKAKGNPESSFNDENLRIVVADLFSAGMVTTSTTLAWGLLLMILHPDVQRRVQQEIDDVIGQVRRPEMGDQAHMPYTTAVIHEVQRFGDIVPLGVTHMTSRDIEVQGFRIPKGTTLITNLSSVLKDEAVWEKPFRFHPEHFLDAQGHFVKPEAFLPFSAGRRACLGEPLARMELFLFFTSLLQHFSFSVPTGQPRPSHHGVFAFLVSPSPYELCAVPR
Sequence of Cytochrome P450 4F3 (Q08477 whole entry): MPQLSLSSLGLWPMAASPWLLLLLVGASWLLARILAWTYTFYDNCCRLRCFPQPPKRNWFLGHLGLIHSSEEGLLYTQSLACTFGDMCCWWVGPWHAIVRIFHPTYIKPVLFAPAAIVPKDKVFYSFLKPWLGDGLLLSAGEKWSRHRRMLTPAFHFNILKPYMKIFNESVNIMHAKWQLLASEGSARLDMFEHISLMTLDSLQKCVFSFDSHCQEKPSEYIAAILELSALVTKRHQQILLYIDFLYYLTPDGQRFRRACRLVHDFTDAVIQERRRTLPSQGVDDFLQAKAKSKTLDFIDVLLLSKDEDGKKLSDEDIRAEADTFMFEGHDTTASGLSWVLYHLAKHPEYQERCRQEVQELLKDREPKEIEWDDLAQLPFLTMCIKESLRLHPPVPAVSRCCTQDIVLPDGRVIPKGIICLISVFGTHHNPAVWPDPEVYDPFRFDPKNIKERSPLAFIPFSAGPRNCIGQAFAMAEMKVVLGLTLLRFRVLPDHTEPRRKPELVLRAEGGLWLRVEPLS

For the molecule `NC(CO)(CO)CCc1ccc(CCCCCCCCO)cc1`, the Retention_time was found to be 34.7 min in series [1], 35.4 min in series [2] and 32.1 min in series [3]. The Compound recovery at Cytochrome P450 2D6 was determined as 1.02%; on Cytochrome P450 4F2 [4] it was 2.99%; on Cytochrome P450 4F3, 0.84%.
With `CCCCCCCCc1ccc(CCC(N)(CO)CO)cc1` [FINGOLIMOD], the half-life in series [5] is 120 h.
For the molecule `CC(=O)N1CCN(c2ccc(OCC3COC(Cn4ccnc4)(c4ccc(Cl)cc4Cl)O3)cc2)CC1` (stereo unspecified) [KETOCONAZOLE], the IC50 at Cytochrome P450 4F2 [6] came to 1.6 µM. Moreover, on Cytochrome P450 4F2 [7], the Ki amounted to 0.74 µM.

B1: Cytochrome P450 4F2 (Homo sapiens) (protein)
chain: MSQLSLSWLGLWPVAASPWLLLLLVGASWLLAHVLAWTYAFYDNCRRLRCFPQPPRRNWFWGHQGMVNPTEEGMRVLTQLVATYPQGFKVWMGPISPLLSLCHPDIIRSVINASAAIAPKDKFFYSFLEPWLGDGLLLSAGDKWSRHRRMLTPAFHFNILKPYMKIFNESVNIMHAKWQLLASEGSACLDMFEHISLMTLDSLQKCVFSFDSHCQEKPSEYIAAILELSALVSKRHHEILLHIDFLYYLTPDGQRFRRACRLVHDFTDAVIQERRRTLPSQGVDDFLQAKAKSKTLDFIDVLLLSKDEDGKKLSDEDIRAEADTFMFEGHDTTASGLSWVLYHLAKHPEYQERCRQEVQELLKDREPKEIEWDDLAHLPFLTMCMKESLRLHPPVPVISRHVTQDIVLPDGRVIPKGIICLISVFGTHHNPAVWPDPEVYDPFRFDPENIKERSPLAFIPFSAGPRNCIGQTFAMAEMKVVLALTLLRFRVLPDHTEPRRKPELVLRAEGGLWLRVEPLS
On to B1, for which, in series [8], the Km came out at 45 µM and the Vmax came out at 0.00105 µmol/min.
